# Reference: patent US20230110491A1, “LUCIFERASE-BASED METHODS FOR DETECTING BACTERIAL AND FUNGAL CELLS AND ASSESSING SUSCEPTIBILITY OF BACTERIAL CELLS TO ANTIBIOTICS” (Biosynth AG, priority 2020, published 2023)
# Legend:
# [1] = test system: Salmonella enteritidis RKI 05/07992; assay: Coupled enzyme assay using pro-luciferins on solid nutrient agar with luciferase and ATP; type: cell-based; settings: solid nutrient agar with luciferase, pro-luciferin and 1 mM ATP; approx. 10 CFU/well; 37° C.
# Experimental: (§1) Nutrient agar pH 7.4 (5 g/I peptone, 5 g/I NaCl, 2 g/I yeast extract, 1 g/I meat extract, 15 g/I agar) was autoclaved and cooled to 50° C. […] Next, 40 μM D-luciferin (Biosynth AG) was added from a concentrated stock solution.
# (§2) Actively growing cultures (Nutrient Broth, 37° C., OD600 0.08 to 0.33) of Staphylococcus aureus ATCC 29213 and Salmonella enteritidis RKI 05/07992 were then diluted to […] in sterile PBS and inoculated to microplate wells with agar (1 μl per well=approx. 10 CFU/well). 1 μl sterile phosphate buffered saline (PBS) was added to sterile control wells. The surrounding wells were filled with sterile water and the plate was incubated at 37° C. in a luminescence microplate reader. The luminescence was measured every 10 min (kinetic mode).
# (§3) (Biosynth AG) and 1 mM ATP.
# [2] = test system: Staphylococcus aureus ATCC 29213; assay: as above; type: cell-based; settings: solid nutrient agar with luciferase, pro-luciferin and 1 mM ATP; approx. 10 CFU/well; 37° C.
# Experimental: as §1, §2, §3
# [3] = test system: Ampicillin resistant (AMP^R) E. coli RKI 66/09 (AmpC); assay: ATP assay for antibiotic susceptibility testing (luminescence, ATP release); type: cell-based, Escherichia coli
# Experimental: (§4) Nutrient broth pH 7.4 (5 g/I peptone, 5 g/I NaCl, 2 g/I yeast extract, 1 g/I meat extract) was autoclaved and cooled to room temperature. […] Next, 0.4 mM D-luciferin (Biosynth AG) and 1 mM MgCl2 was added from concentrated stock solutions. The prepared broth was sterilized by filtration (0.2 μm), incubated for 2.5 h at 30° C. in order to burn-off background and then added to a white microplate (0.198 ml per well).
# (§5) Ampicillin was added from a dilution series of a filter-sterilized, concentrated stock solution prepared in sterile ultrapure water (5 μl per well). Sterile water was added to control wells without antibiotic. Wells were inoculated with 5 μl of cell suspensions (OD 0.1, prepared in sterile PBS from agar plate pre-cultures) of either Ampicillin resistant (AMP^R) E. coli RKI 66/09 (AmpC) or Ampicillin sensitive (AMP^S) E. coli ATCC 25922. Initial cell concentration in wells was approximately 2.5×10^6 CFU/ml. The microplate was incubated at 37° C. in a luminescence microplate reader and relative luminescence units (RLU) were measured every 2 min for 8 h. For comparison, optical density (600 nm) was measured for all wells after 15 h incubation at 37° C.
# [4] = test system: Ampicillin sensitive (AMP^S) E. coli ATCC 25922; assay: as above; type: cell-based, Escherichia coli
# Experimental: as §4, §5
# [5] = test system: Ampicillin resistant (AMP^R) E. coli RKI 66/09 (AmpC); assay: Optical density (600 nm) after 15 h incubation with ampicillin; type: cell-based, Escherichia coli; settings: all tested ampicillin concentrations
# Experimental: as §5
# [6] = test system: Ampicillin sensitive (AMP^S) E. coli ATCC 25922; assay: as above; type: cell-based, Escherichia coli
# Experimental: as §5
SMILES,incubation time after which luminescence begins to strongly increase [1],incubation time after which luminescence increases [2],time course of ATP release ([3]; 1.56-100 μg/ml ampicillin),"dependency of onset time on ampicillin concentration ([3]; onset time = first time point with RLU above 1200, all tested concentrations)",ATP release at non-inhibitory concentration ([4]; 1.56 μg/ml ampicillin),"time after which ATP increase can be detected ([4]; at inhibitory antibiotic concentrations, cell concentrations as low as 2×10^6 CFU/ml)","ATP release compared to the control without antibiotic ([4]; at the MIC or above (6.25, 25, 100 μg/ml))",dependency of onset time on ampicillin concentration ([4]; onset time = first time point with RLU above 1200),growth inhibition (optical density after 15 h) [5],cell growth (optical density after 15 h) ([6]; 10-100 μg/ml ampicillin),"MIC ([6]; Escherichia coli, ATCC25922, OD 600 nm, 15 h, 37° C., read-out: MIC from optical density after 15 h)"
CCCCCCCC(=O)Oc1ccc(COc2ccc3nc(C4=N[C@@H](C(=O)O)CS4)sc3c2)cc1 [D-luciferin-spacer-caprylate],about 10 hours,about 17 hours,,,,,,,,,
CC1(C)S[C@@H]2[C@H](NC(=O)[C@H](N)c3ccccc3)C(=O)N2[C@H]1C(=O)O [ampicillin],,,independent of ampicillin concentration,essentially the same onset time,very high amounts of ATP are released,30 min,occurs earlier and is increased,inversely correlates with ampicillin concentration,no growth inhibition,lack of cell growth,~6 mg/L
